The text below walks through data of patent US20030026786A1, “CHONDROGENIC DIFFERENTIATION OF HUMAN MESENCHYMAL STEM CELLS” (priority 1999, published 2003).

The test system of one assay is hMSCs in pellet culture. Description: Induction of hypertrophy in hMSC pellet culture by sequential treatment with two media. The assay is classed as cell-based, human. Particulars: for inducing hypertrophy: other preliminary experiments.
For assay [1], the system named is human mesenchymal stem cells (hMSCs). Description: hMSC pellet culture in chondrogenic medium with low or high sugar concentration (pellet size, type II collagen immunostaining, toluidine blue). The settings on record: low-glucose medium supplemented with 3.5 g/l fructose; compared with high-glucose medium (4.5 g/l glucose). The class given is cell-based. How it is done: The hMSCs in pellet culture that are undergoing chondrogenic differentiation express the extracellular matrix proteoglycans mentioned above. […] In FIG. 1, the increase in the size of the cell pellet is evident when the medium contains “high glucose”. Changes in the size of hMSC pellets reflect the extent of synthesis of extracellular matrix components. Each pellet was formed by transferring an aliquot of 200,000 cells into ½ ml chondrogenic medium with 1 g/l (5.5 mM) glucose (left) or 4.5 g/l (25 mM) glucose ( right). The chondrogenic medium consisted of DMEM with the stated concentration of glucose and the following supplements: 100 nM dexamethasone, 10 ng/ml Transforming Growth Factor)β, 1 mM sodium pyruvate, 5 μg/ml ascorbic acid-2-phosphate, and 40 μg/ml proline. A 1:99 dilution of “ITS+” supplied 6.25 μg/ml bovine insulin, 6.25 μg/ml transferrin, […], 5.33 μg/ml linoleic acid, and 1.25 mg/ml bovine serum albumin. Final concentrations of 100 U/ml penicillin, 100 μg/ml streptomycin, and 250 ng/ml amphotericin B were supplied by a 1:99 dilution of a concentrated antibiotic solution. The cells and medium were placed into a 15 ml polypropylene conical-bottom centrifuge tube, and gently centrifuged (500× g for 5 min.), after which the tubes with loosened caps were placed in a humidified 5% CO2 incubator at 37 C. […]

The test system of assay [2] is Human bone marrow-derived mesenchymal stem cells. Description: Chondrogenic differentiation of MSC pellets with TGF-β1 or TGF-β3 (toluidine blue, collagen and COMP immunostaining). The assay is classed as cell-based. Particulars: 10 ng/ml. How it is done:
Human bone marrow-derived mesenchymal stem cells were cultured under standard conditions in the presence of 10% FBS until confluent. The cells were trypsinized, washed twice with chondrogenic medium, and resuspended at a density of 200,000 cells/ml in 15 ml polypropylene tubes in chondrogenic medium containing either 10 ng/ml TGF-01, TGF-β3 or neither of these. […] Frozen sections (8 μn) were stained with Toluidine blue. They were also stained for the following using standard immunocytochemistry protocols: collagen type 11, collagen type 1, and cartilage oligomeric matrix protein (COMP).

Setting [3] is: no TGF-β3, 50 nM thyroxine, 20 mM β-glycerol phosphate, 10^−9 M dexamethasone, compared to standard chondrogenic medium for 28 days.

Entries after “also recorded” stand apart in the source; their conditions may differ.

For the molecule `N[C@@H](Cc1cc(I)c(Oc2cc(I)c(O)c(I)c2)c(I)c1)C(=O)O` [thyroxine], the hypertrophy result in the assay with hMSCs in pellet culture (no TGF-β3, 50 nM thyroxine combined with 20 mM β-glycerol phosphate and 10^−9 M dexamethasone, from day 14 to day 28) is given as “hypertrophic differentiation of hMSCs was the predominant pathway; also recorded: more prominent”. In addition, in the assay with hMSCs in pellet culture (setting [3]), the “deposition of type X collagen (antibody X53)” value was “irregular but pronounced increase”; the “staining for type II and type IX collagens” value was “intense staining”. Also, the inducing hypertrophy entry in the assay with hMSCs in pellet culture is reported as “effective”. Moreover, in the assay with hMSCs in pellet culture (withdrawing TGF-β3 and adding 50 nM thyroxine after two weeks of chondrogenic differentiation, two additional weeks of culture), the hypertrophic effect result is on record as “pronounced hypertrophic effect”.

Regarding `O=C(CO)[C@@H](O)[C@H](O)[C@H](O)CO` [fructose], the “improvement to in vitro chondrogenic differentiation” value in assay [1] is “same improvement”.

For the molecule “TGF-β1: member of the transforming growth factor-β superfamily, known promoter of cartilage formation”, the “type II collagen expression” value was “localized expression of type II collagen” in assay [2] (14 days) and “no expression of type II collagen” in assay [2] (after 8 days in pellet culture). In addition, in assay [2] (21 days in culture), the “type II collagen staining” value is “staining throughout the pellet except for the perimeter”.

For the molecule `N[C@@H](Cc1cc(I)c(Oc2ccc(O)c(I)c2)c(I)c1)C(=O)O` [T3], the inducing hypertrophy result with hMSCs in pellet culture is reported as “effective”.

B1: TGF-β3: transforming growth factor beta-3, chondroinductive agent (protein, UniProt P10600 301-412, looked up)
Transforming growth factor …: ALDTNYCFRNLEENCCVRPLYIDFRQDLGWKWVHEPKGYYANFCSGPCPYLRSADTTHSTVLGLYNTLNPEASASPCCVPQDLEPLTILYYVGRTPKVEQLSNMVVKSCKCS
Regarding B1, in assay [2] (14 days), the “cell morphology (hypertrophic cells)” value was “A large proportion of the cells were hypertrophic”; the pellet size entry was “larger in size”; the “type II collagen expression” value is listed as “expression of type II collagen throughout, except for a central area”. Also, in assay [2] (21 days in culture), the COMP staining entry is “reduced pericellular staining and increased interterritorial staining”; the “type II collagen staining” value is listed as “very strong staining”. In assay [2] (after 8 days in pellet culture), the “type II collagen expression” value was “some cells-ex fessed type II collagen”. Besides, the “effect on chondrogenic differentiation of human MSCs in vitro” value in assay [2] (up to 21 days) is on record as “dramatic effect; also recorded: more pronounced”.
